Measured values: patent US5672715A, “Herbicidal substituted 3-aryl-pyrazoles” (Monsanto Company, priority 1995, dated 1997)

Experiments:
Format in all cases: in vivo
Cocklebur [1] = test: post-emergence herbicide test; conditions: Xanthium strumarium, post-emergence, 0.25 lb/A; read-out: % plant inhibition
Method in brief: (§1)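 Each pan is moved to a spraying chamber when plants are two to three weeks old and sprayed by atomizer at 10 psig, delivering 1870 L/Ha containing about 0.4% by volume emulsifier. Greenhouse-grown from seed; percent inhibition scored.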

Velvetleaf [2] = test: post-emergence herbicide test; conditions: Abutilon theophrasti, post-emergence, 0.25 lb/A; read-out: % plant inhibition
Method in brief: as §1

Rape [3] = test: post-emergence herbicide test; conditions: post-emergence, 0.25 lb/A; read-out: % plant inhibition
Method in brief: as §1

Corn [4] = test: post-emergence herbicide test; conditions: Zea mays, post-emergence, 0.25 lb/A; read-out: % plant inhibition
Method in brief: as §1

Bedstraw Catchweed [5] = test: post-emergence herbicide test; conditions: Galium aparine, post-emergence, 0.25 lb/A; read-out: % plant inhibition
Method in brief: as §1

Soybean [6] = test: post-emergence herbicide test; conditions: Glycine max, post-emergence, 0.25 lb/A; read-out: % plant inhibition
Method in brief: as §1

Common Chickweed [7] = test: post-emergence herbicide test; conditions: post-emergence, 0.25 lb/A; read-out: % plant inhibition
Method in brief: as §1

Birdseye Speedwell [8] = test: post-emergence herbicide test; conditions: post-emergence, 0.25 lb/A; read-out: % plant inhibition
Method in brief: as §1

Wheat [9] = test: post-emergence herbicide test; conditions: Triticum aestivum, post-emergence, 0.25 lb/A; read-out: % plant inhibition
Method in brief: as §1

Wild Oats [10] = test: post-emergence herbicide test; conditions: Avena fatua, post-emergence, 0.25 lb/A; read-out: % plant inhibition
Method in brief: as §1

Green Foxtail [11] = test: post-emergence herbicide test; conditions: Setaria viridis, post-emergence, 0.25 lb/A; read-out: % plant inhibition
Method in brief: as §1

Seedling Johnsongrass [12] = test: post-emergence herbicide test; conditions: Sorghum halepense, post-emergence, 0.25 lb/A; read-out: % plant inhibition
Method in brief: as §1

Giant Foxtail [13] = test: post-emergence herbicide test; conditions: Setaria faberi, post-emergence, 0.25 lb/A; read-out: % plant inhibition
Method in brief: as §1

Barnyardgrass [14] = test: post-emergence herbicide test; conditions: Echinochloa crus-galli, post-emergence, 0.25 lb/A; read-out: % plant inhibition
Method in brief: as §1

Downy Brome [15] = test: post-emergence herbicide test; conditions: Bromus tectorum, post-emergence, 0.25 lb/A; read-out: % plant inhibition
Method in brief: as §1

Blackgrass [16] = test: post-emergence herbicide test; conditions: Alopecurus myosuroides, post-emergence, 0.25 lb/A; read-out: % plant inhibition
Method in brief: as §1

Morning Glory [17] = test: post-emergence herbicide test; conditions: Ipomoea, post-emergence, 0.25 lb/A; read-out: % plant inhibition
Method in brief: as §1

Cocklebur [18] = test: pre-emergence herbicide test; conditions: Xanthium strumarium, pre-emergence, 0.25 lb/A; read-out: % plant inhibition
Method in brief: (§2)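 Herbicidal effect was assessed as percent inhibition about 14 days after sowing. A known amount of compound was added to the covering topsoil, and the pans were subirrigated in a greenhouse.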

Velvetleaf [19] = test: pre-emergence herbicide test; conditions: Abutilon theophrasti, pre-emergence, 0.25 lb/A; read-out: % plant inhibition
Method in brief: as §2

Rape [20] = test: pre-emergence herbicide test; conditions: pre-emergence, 0.25 lb/A; read-out: % plant inhibition
Method in brief: as §2

Corn [21] = test: pre-emergence herbicide test; conditions: Zea mays, pre-emergence, 0.25 lb/A; read-out: % plant inhibition
Method in brief: as §2

Bedstraw Catchweed [22] = test: pre-emergence herbicide test; conditions: Galium aparine, pre-emergence, 0.25 lb/A; read-out: % plant inhibition
Method in brief: as §2

Soybean [23] = test: pre-emergence herbicide test; conditions: Glycine max, pre-emergence, 0.25 lb/A; read-out: % plant inhibition
Method in brief: as §2

Common Chickweed [24] = test: pre-emergence herbicide test; conditions: pre-emergence, 0.25 lb/A; read-out: % plant inhibition
Method in brief: as §2

Birdseye Speedwell [25] = test: pre-emergence herbicide test; conditions: pre-emergence, 0.25 lb/A; read-out: % plant inhibition
Method in brief: as §2

Wheat [26] = test: pre-emergence herbicide test; conditions: Triticum aestivum, pre-emergence, 0.25 lb/A; read-out: % plant inhibition
Method in brief: as §2

Wild Oats [27] = test: pre-emergence herbicide test; conditions: Avena fatua, pre-emergence, 0.25 lb/A; read-out: % plant inhibition
Method in brief: as §2

Green Foxtail [28] = test: pre-emergence herbicide test; conditions: Setaria viridis, pre-emergence; 0.25 lb/A; read-out: % plant inhibition
Method in brief: as §2

Seedling Johnsongrass [29] = test: pre-emergence herbicide test; conditions: Sorghum halepense, pre-emergence, 0.25 lb/A; read-out: % plant inhibition
Method in brief: as §2

Giant Foxtail [30] = test: pre-emergence herbicide test; conditions: Setaria faberi, pre-emergence, 0.25 lb/A; read-out: % plant inhibition
Method in brief: as §2

Barnyardgrass [31] = test: pre-emergence herbicide test; conditions: Echinochloa crus-galli, pre-emergence, 0.25 lb/A; read-out: % plant inhibition
Method in brief: as §2

Downy Brome [32] = test: pre-emergence herbicide test; conditions: Bromus tectorum, pre-emergence, 0.25 lb/A; read-out: % plant inhibition
Method in brief: as §2

Blackgrass [33] = test: pre-emergence herbicide test; conditions: Alopecurus myosuroides, pre-emergence, 0.25 lb/A; read-out: % plant inhibition
Method in brief: as §2

Morning Glory [34] = test: pre-emergence herbicide test; conditions: Ipomoea, pre-emergence, 0.25 lb/A; read-out: % plant inhibition
Method in brief: as §2

SMILES | inhibition at 280.212 g/ha (Cocklebur [1]) [%] | inhibition at 280.212 g/ha (Velvetleaf [2]) [%] | inhibition at 280.212 g/ha (Rape [3]) [%] | inhibition at 280.212 g/ha (Corn [4]) [%] | inhibition at 280.212 g/ha (Bedstraw Catchweed [5]) [%] | inhibition at 280.212 g/ha (Soybean [6]) [%] | inhibition at 280.212 g/ha (Common Chickweed [7]) [%] | inhibition at 280.212 g/ha (Birdseye Speedwell [8]) [%] | inhibition at 280.212 g/ha (Wheat [9]) [%] | inhibition at 280.212 g/ha (Wild Oats [10]) [%] | inhibition at 280.212 g/ha (Green Foxtail [11]) [%] | inhibition at 280.212 g/ha (Seedling Johnsongrass [12]) [%] | inhibition at 280.212 g/ha (Giant Foxtail [13]) [%] | inhibition at 280.212 g/ha (Barnyardgrass [14]) [%] | inhibition at 280.212 g/ha (Downy Brome [15]) [%] | inhibition at 280.212 g/ha (Blackgrass [16]) [%] | inhibition at 280.212 g/ha (Morning Glory [17]) [%] | inhibition at 280.212 g/ha (Cocklebur [18]) [%] | inhibition at 280.212 g/ha (Velvetleaf [19]) [%] | inhibition at 280.212 g/ha (Rape [20]) [%] | also measured
CCOC(=O)CCCOC(=O)c1cc(-c2nn(C)c(C(F)(F)F)c2C)c(F)cc1Cl [Compound 24] | 85 | 99 | 25 | 10 | 65 | 45 | 90 | 95 | 20 | 25 | 20 | 20 | 15 | 15 | 25 | 25 | 75 | 40 | 60 | 95 | inhibition at 280.212 g/ha (Corn [21]): 0%; inhibition at 280.212 g/ha (Bedstraw Catchweed [22]): 95%; inhibition at 280.212 g/ha (Soybean [23]): 0%; inhibition at 280.212 g/ha (Common Chickweed [24]): 100%; inhibition at 280.212 g/ha (Birdseye Speedwell [25]): 100%; inhibition at 280.212 g/ha (Wheat [26]): 7%; inhibition at 280.212 g/ha (Wild Oats [27]): 15%; inhibition at 280.212 g/ha (Green Foxtail [28]): 100%; inhibition at 280.212 g/ha (Seedling Johnsongrass [29]): 10%; inhibition at 280.212 g/ha (Giant Foxtail [30]): 35%; inhibition at 280.212 g/ha (Barnyardgrass [31]): 20%; inhibition at 280.212 g/ha (Downy Brome [32]): 30%; inhibition at 280.212 g/ha (Blackgrass [33]): 50%; inhibition at 280.212 g/ha (Morning Glory [34]): 0%
Cc1c(-c2cc(C(=O)OC3CCOC3)c(Cl)cc2F)nn(C)c1C(F)(F)F (centres unmarked) [Compound 25] | 90 | 100 | 40 | 20 | 65 | 60 | 90 | 95 | 16 | 35 | 65 | 85 | 75 | 85 | 50 | 40 | 90 | 35 | 80 | 35 | inhibition at 280.212 g/ha (Corn [21]): 45%; inhibition at 280.212 g/ha (Bedstraw Catchweed [22]): 85%; inhibition at 280.212 g/ha (Soybean [23]): 5%; inhibition at 280.212 g/ha (Common Chickweed [24]): 100%; inhibition at 280.212 g/ha (Birdseye Speedwell [25]): 100%; inhibition at 280.212 g/ha (Wheat [26]): 0%; inhibition at 280.212 g/ha (Wild Oats [27]): 90%; inhibition at 280.212 g/ha (Green Foxtail [28]): 100%; inhibition at 280.212 g/ha (Seedling Johnsongrass [29]): 99%; inhibition at 280.212 g/ha (Giant Foxtail [30]): 100%; inhibition at 280.212 g/ha (Barnyardgrass [31]): 95%; inhibition at 280.212 g/ha (Downy Brome [32]): 10%; inhibition at 280.212 g/ha (Blackgrass [33]): 98%; inhibition at 280.212 g/ha (Morning Glory [34]): 55%
CSCc1cc(-c2nn(C)c(C(F)(F)F)c2C)c(F)cc1Cl [Compound 27] | 80 | 98 | 50 | 65 | 90 | 80 | 65 | 100 | 13 | 25 | 75 | 90 | 35 | 70 | 40 | 30 | 95 | 20 | 90 | 10 | inhibition at 280.212 g/ha (Corn [21]): 5%; inhibition at 280.212 g/ha (Bedstraw Catchweed [22]): 65%; inhibition at 280.212 g/ha (Soybean [23]): 3%; inhibition at 280.212 g/ha (Common Chickweed [24]): 75%; inhibition at 280.212 g/ha (Birdseye Speedwell [25]): 35%; inhibition at 280.212 g/ha (Wheat [26]): 0%; inhibition at 280.212 g/ha (Wild Oats [27]): 5%; inhibition at 280.212 g/ha (Green Foxtail [28]): 100%; inhibition at 280.212 g/ha (Seedling Johnsongrass [29]): 90%; inhibition at 280.212 g/ha (Giant Foxtail [30]): 50%; inhibition at 280.212 g/ha (Barnyardgrass [31]): 60%; inhibition at 280.212 g/ha (Downy Brome [32]): 5%; inhibition at 280.212 g/ha (Blackgrass [33]): 35%; inhibition at 280.212 g/ha (Morning Glory [34]): 75%
Cc1c(-c2cc(CS(C)(=O)=O)c(Cl)cc2F)nn(C)c1C(F)(F)F [Compound 28] | 40 | 60 | 20 | 40 | 60 | 20 | 25 | 85 | 8 | 15 | 50 | 20 | 25 | 10 | 20 | 10 | 65 | 10 | 45 | 5 | inhibition at 280.212 g/ha (Corn [21]): 3%; inhibition at 280.212 g/ha (Bedstraw Catchweed [22]): 40%; inhibition at 280.212 g/ha (Soybean [23]): 0%; inhibition at 280.212 g/ha (Common Chickweed [24]): 25%; inhibition at 280.212 g/ha (Birdseye Speedwell [25]): 70%; inhibition at 280.212 g/ha (Wheat [26]): 0%; inhibition at 280.212 g/ha (Wild Oats [27]): 0%; inhibition at 280.212 g/ha (Green Foxtail [28]): 90%; inhibition at 280.212 g/ha (Seedling Johnsongrass [29]): 50%; inhibition at 280.212 g/ha (Giant Foxtail [30]): 30%; inhibition at 280.212 g/ha (Barnyardgrass [31]): 15%; inhibition at 280.212 g/ha (Downy Brome [32]): 0%; inhibition at 280.212 g/ha (Blackgrass [33]): 30%; inhibition at 280.212 g/ha (Morning Glory [34]): 0%
Cc1c(-c2cc(CSC(C)C)c(Cl)cc2F)nn(C)c1C(F)(F)F [Compound 29] | 90 | 99 | 100 | 20 | 100 | 90 | 95 | 100 | 12 | 75 | 95 | 90 | 65 | 90 | 70 | 70 | 90 | 15 | 70 | 15 | inhibition at 280.212 g/ha (Corn [21]): 30%; inhibition at 280.212 g/ha (Bedstraw Catchweed [22]): 70%; inhibition at 280.212 g/ha (Soybean [23]): 20%; inhibition at 280.212 g/ha (Common Chickweed [24]): 90%; inhibition at 280.212 g/ha (Birdseye Speedwell [25]): 70%; inhibition at 280.212 g/ha (Wheat [26]): 0%; inhibition at 280.212 g/ha (Wild Oats [27]): 15%; inhibition at 280.212 g/ha (Green Foxtail [28]): 95%; inhibition at 280.212 g/ha (Seedling Johnsongrass [29]): 100%; inhibition at 280.212 g/ha (Giant Foxtail [30]): 95%; inhibition at 280.212 g/ha (Barnyardgrass [31]): 80%; inhibition at 280.212 g/ha (Downy Brome [32]): 10%; inhibition at 280.212 g/ha (Blackgrass [33]): 40%; inhibition at 280.212 g/ha (Morning Glory [34]): 65%
